Assay results reported in the NIST ThermoML archive (doi:10.1016/j.jct.2012.02.036).

Assay: xn = mol fraction of the nth substance listed
Conditions: 101 kPa, Liquid; for mass density: Vibrating tube method

NCCCO [3-amino-1-propanol] + CC(C)CO
Conditions | mass density, 293.15 K [kg/m3] | mass density, 303.15 K [kg/m3] | mass density, 313.15 K [kg/m3] | mass density, 323.15 K [kg/m3] | mass density, 333.15 K [kg/m3] | viscosity, 293.15 K [mPa·s] | viscosity, 303.15 K [mPa·s] | viscosity, 313.15 K [mPa·s] | viscosity, 323.15 K [mPa·s] | viscosity, 333.15 K [mPa·s]
x1 = 0.1037 | 819.8 | 811.99 | 804.06 | 795.93 | 787.58 | 5.051 | 3.521 | 2.443 | 1.637 | 1.025
x1 = 0.2007 | 837.1 | 829.27 | 821.32 | 813.22 | 804.93 | 6.346 | 4.093 | 3.059 | 2.113 | 1.408
x1 = 0.3006 | 854.9 | 847.02 | 839.04 | 830.95 | 822.7 | 8.282 | 5.473 | 3.688 | 2.534 | 1.699
x1 = 0.4002 | 873.2 | 865.25 | 857.25 | 849.16 | 840.94 | 10.89 | 6.995 | 4.658 | 3.177 | 2.155
x1 = 0.501 | 891.9 | 883.89 | 875.86 | 867.78 | 859.58 | 13.95 | 8.794 | 5.767 | 3.903 | 2.693
x1 = 0.6007 | 910.4 | 902.41 | 894.47 | 886.34 | 878.16 | 17.71 | 10.85 | 7.048 | 4.73 | 3.251
x1 = 0.7008 | 929.5 | 921.49 | 913.45 | 905.35 | 897.17 | 21.85 | 13.33 | 8.496 | 5.666 | 3.88
x1 = 0.8005 | 948.6 | 940.49 | 932.36 | 924.27 | 916.24 | 27.18 | 16.12 | 10.09 | 6.695 | 4.573
x1 = 0.9005 | – | 960.24 | 952.19 | 944.09 | 935.93 | 33.2 | 19.47 | 12.19 | 8.029 | 5.424
x1 = 1 | 987.55 | 979.53 | 971.47 | 963.37 | 955.22 | 40.45 | 23.98 | 15.31 | 10.22 | 6.961

NCCCO [3-amino-1-propanol] + CC(C)O
Conditions | mass density, 293.15 K [kg/m3] | mass density, 303.15 K [kg/m3] | mass density, 313.15 K [kg/m3] | mass density, 323.15 K [kg/m3] | mass density, 333.15 K [kg/m3] | viscosity, 293.15 K [mPa·s] | viscosity, 303.15 K [mPa·s] | viscosity, 313.15 K [mPa·s] | viscosity, 323.15 K [mPa·s] | viscosity, 333.15 K [mPa·s]
x1 = 0.1006 | 807.84 | 799.47 | 790.86 | 781.97 | 772.74 | 3.076 | 2.069 | 1.334 | 0.761 | –
x1 = 0.2004 | 830.07 | 821.75 | 813.25 | 804.55 | 795.57 | 4.223 | 2.918 | 1.964 | 1.278 | 0.734
x1 = 0.3 | 851.78 | 843.5 | 835.07 | 826.48 | 817.69 | 5.489 | 3.955 | 2.745 | 1.879 | 1.203
x1 = 0.4007 | 873.12 | 864.86 | 856.49 | 848 | 839.34 | 7.957 | 5.363 | 3.704 | 2.559 | 1.75
x1 = 0.5003 | 894.23 | 885.99 | 877.67 | 869.25 | 860.69 | 11.01 | 7.213 | 4.931 | 3.402 | 2.367
x1 = 0.6 | 914.21 | 906 | 897.72 | 889.36 | 880.9 | 14.58 | 9.397 | 6.266 | 4.356 | 3.063
x1 = 0.7002 | 933.43 | 925.29 | 916.99 | 908.67 | 900.35 | 19.25 | 12.09 | 8.058 | 5.497 | 3.88
x1 = 0.8003 | 952.3 | 944.26 | 935.98 | 927.76 | 919.55 | 25.27 | 15.62 | 10.17 | 6.895 | 4.842
x1 = 0.9001 | 970.56 | 962.49 | 954.37 | 946.21 | 937.99 | 32.08 | 19.5 | 12.46 | 8.337 | 5.894
x1 = 1 | 987.65 | 979.65 | 971.61 | 963.52 | 955.38 | 40.46 | 23.98 | 15.31 | 10.22 | 6.962
